# Values quoted from earlier work as cited in patent US20070105912A1, “Pharmaceutical compositions comprising lercanidipine” (priority 2003, published 2007).
# Several values for one entry are separate records, joined by “and”; a condition that tells them apart may be missing. Equal entries are not always repeated.
# Assays:
# [1] = test system: plasma proteins
structure (smiles),measurement,setting,value
"COC(=O)C1=C(C)NC(C)=C(C(=O)OC(C)(C)CN(C)CCC(c2ccccc2)c2ccccc2)C1c1cccc([N+](=O)[O-])c1 (centres unmarked) [Lercanidipine, methyl 1,1-N-trimethyl-N-(3,3-diphenylpropyl)aminoethyl 1,4dihydro 6-dimethyl (3-nitrophenyl)pyridine-3,5-dicarboxylate]",Terminal elimination t1/2,in vivo,2 to 5 h
same,Time of peak plasma levels following dosing,oral administration,1.5 to 3 h
same,Fraction of the oral dose excreted in urine,oral dose,about 50%
same,Increase of amount absorbed with simultaneous intake of food,"oral, with food vs without food",3 to 4 times and 3-4 times
same,Bound to plasma proteins,[1],more than 98%
